Measurements published in US9296728B2, “Therapeutic compounds” (Regents of the University of Minnesota, priority 2012, dated 2016).

Key:
MCT1 = MCT1 (Rattus norvegicus (Rat), UniProt P53987); assay: Test A. MCT1 inhibition via lactate uptake in rat brain endothelial (RBE4) cells; type: cell-based; details: 14C-lactate uptake
Procedure: Test A. MCT1 Inhibition Via Lactate Uptake Rat Brain Endothelial Cells
The entire lactate uptake studies for the inhibition of MCT1 were carried out on RBE4 (Rat Brain Endothelial 4) cells. The expression of MCT1 on these cells was confirmed by Western Blotting. The cells were plated approximately 20-24 hours before the experiment, the number of cells being approximately 10^5 cells per well. The test compounds were dissolved in DMSO and diluted 1000 times using a solution of HEPES buffer (pH 7.43) which consists of 3 μM ^14C-Lactate and 2 μM L-Lactate. The cells were washed twice with 500 μL of HEPES buffer and the cells were allowed to equilibrate for 15 minutes at 37° C. The HEPES buffer was removed and 250 μL of the test sample was added in triplicates. This was repeated for all the compounds, including the controls (CHC and DMSO). After 15 minutes, the compounds were removed from the well and 500 μL of ice-cold stop buffer (0.1 mM CHC solution in HEPES buffer) was added. The plate was kept on ice. Now, the HEPES buffer in one triplicate was removed and DMSO solution was added and immediately removed and ice-cold stop buffer was added. This was considered as “Zero”. One triplicate was left blank, which was used for protein assay after lysing the cells. The cells were washed twice with ice-cold HEPES buffer and then 250 μL of 0.1M NaOH in 5% Triton-X solution was added and the plate is kept on a shaker for 40 minutes to lyse the cells. 150 μL of the lysed cells was added into 4 mL of the scintillation fluid in a scintillation vial and scintillation count was obtained in disintegrations per minute (dpm). The percent inhibition values were calculated by taking DMSO as minimum. Concentration study (usually 9-12 dilutions) was done to determine the IC50 of each compound.

[1] = Toxicity study in healthy ICR mice (body weight, WBC, RBC); type: in vivo; details: for RBC ± SEM / WBC ± SEM: end of day 22
Procedure: 60 ICR mice weighing ˜27 grams were randomly assigned into 5 groups (12 animals, 6 male and 6 female per group), one group being the control group without any drug administration (food only). The drugs were administered twice daily by P.O. or I.P. Group 1 and 3 were administered orally with 50 mg/Kg of Compound 20 and 18 mg/Kg of Compound 14 respectively. Group 2 and 4 mice were injected intraperitoneally with 6.67 mg/Kg of Compound 20 and 5.3 mg/Kg of Compound 14 (dissolved in water) respectively. The body weights of mice were recorded daily for 22 days. At the end of the 22nd day, 3 mice were randomly selected from each group and their blood samples were collected for detailed analysis of white blood cell (WBC) and red blood cell (RBC) counts. The mice were then euthanized with CO2.

[2] = Toxicity study in BALB/c nude mice containing WiDr colorectal adenocarcinoma xenograft (body weight); type: in vivo; details: BALB/c nude mice with WiDr xenograft, 8 mg/kg i.p. twice daily
Procedure: Female BALB/c nude mice weighing ˜20 g were taken and 5.0 10^6 WiDr cancer cells were implanted into their right flanks with a 1:1 mixture of 0.1 mL PBS and matrigel. The tumor was allowed to grow to a size of ˜150 cubic millimeters (14 days). The mice were randomly chosen by chance and assigned into 5 groups (6 mice per group), one group being the control group to which tumor was allowed to grow without any drug administration (food only). The drugs were administered twice daily by P.O. or I.P. Group 1 mice were administered orally with 50 mg/kg of Compound 20. Groups 2, 3 and 4 mice were treated via IP with 10 mg/kg Compound 20, 8 mg/kg of Compound 14 and 238 mg/kg CHC respectively. Body weight changes were recorded every two days for 3 weeks.

Sequence of MCT1 (P53987 whole entry): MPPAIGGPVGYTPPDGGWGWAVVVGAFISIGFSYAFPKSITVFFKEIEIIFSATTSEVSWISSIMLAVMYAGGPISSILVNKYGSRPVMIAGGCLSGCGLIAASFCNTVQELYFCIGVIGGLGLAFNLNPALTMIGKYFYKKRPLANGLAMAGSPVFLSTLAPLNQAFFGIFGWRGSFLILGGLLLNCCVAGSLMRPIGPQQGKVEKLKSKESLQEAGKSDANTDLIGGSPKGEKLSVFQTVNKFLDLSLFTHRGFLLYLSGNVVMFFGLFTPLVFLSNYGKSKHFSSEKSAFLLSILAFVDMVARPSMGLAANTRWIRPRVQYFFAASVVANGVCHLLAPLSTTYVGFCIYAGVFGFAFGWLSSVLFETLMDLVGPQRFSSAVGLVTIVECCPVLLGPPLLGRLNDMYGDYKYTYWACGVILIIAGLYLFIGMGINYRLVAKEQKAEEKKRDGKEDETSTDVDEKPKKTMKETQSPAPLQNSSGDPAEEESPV
Sequence of MCT1 (P26453 141-388 partner): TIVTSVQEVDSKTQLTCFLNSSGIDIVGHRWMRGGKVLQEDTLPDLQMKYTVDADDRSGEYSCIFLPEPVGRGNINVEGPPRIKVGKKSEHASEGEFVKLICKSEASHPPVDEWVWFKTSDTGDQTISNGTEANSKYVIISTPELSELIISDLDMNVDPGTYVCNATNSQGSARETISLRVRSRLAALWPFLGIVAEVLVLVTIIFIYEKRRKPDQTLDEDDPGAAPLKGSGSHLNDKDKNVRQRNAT

For `CCCCN(CCCC)c1ccc(/C=C(\C#N)C(=O)O)cc1` [Compound 4], the IC50 (MCT1) was 0.026 µM.

Work on `CCCCCN(CCCCC)c1ccc(/C=C(\C#N)C(=O)O)cc1` [Compound 5] yielded an IC50 (MCT1) of 0.12 µM.

With `CCCCCCN(CCCCCC)c1ccc(/C=C(\C#N)C(=O)O)cc1` [Compound 6] the IC50 (MCT1) was 0.95 µM.

`C=CCN(CC=C)c1ccc(/C=C(\C#N)C(=O)O)cc1` [Compound 7] gave an IC50 (MCT1) of 0.088 µM.

With `C#CCN(CC#C)c1ccc(/C=C(\C#N)C(=O)O)cc1` [Compound 8] the IC50 (MCT1) was 0.34 µM.

With `CC(C)CN(CC(C)C)c1ccc(/C=C(\C#N)C(=O)O)cc1` [Compound 9] the IC50 (MCT1) was 0.066 µM.

For `N#C/C(=C\c1ccc(N(Cc2ccccc2)Cc2ccccc2)cc1)C(=O)O` [Compound 10], the IC50 (MCT1) was 0.043 µM.

In the case of `N#C/C(=C\c1ccc(N2CCCC2)cc1)C(=O)O` [Compound 11], the IC50 (MCT1) is reported as 0.064 µM.

`N#C/C(=C\c1ccc(N2CCCCC2)cc1)C(=O)O` [Compound 12] showed an IC50 (MCT1) of 0.11 µM.

With `CCCN(CCC)c1ccc(/C=C(\C#N)C(=O)O)c(OC)c1` [Compound 13] the IC50 (MCT1) was 0.0095 µM.

In the case of `CCCCN(CCCC)c1ccc(/C=C(\C#N)C(=O)O)c(OC)c1` [Compound 14], the “Weight in grams (Day 0)” value ([1]; 5.3 mg/kg i.p. twice daily) is reported as 27.05 grams, the “Weight in grams (Day 22)” value ([1]; 5.3 mg/kg i.p. twice daily) is reported as 32.53 grams and the “RBC ± SEM” value ([1]; 5.3 mg/kg i.p. twice daily) is reported as 1.58 ± 0.05 10^13/L. For the same compound, the “WBC ± SEM” value ([1]; 5.3 mg/kg i.p. twice daily) was 5.80 ± 0.72 10^10/L, the “Weight in grams (Day 0)” value ([1]; 18 mg/kg p.o. twice daily) was 27.04 grams and the “Weight in grams (Day 22)” value ([1]; 18 mg/kg p.o. twice daily) was 32.60 grams. The “RBC ± SEM” value ([1]; 18 mg/kg p.o. twice daily) was 1.58 ± 0.02 10^13/L, the “WBC ± SEM” value ([1]; 18 mg/kg p.o. twice daily) was 4.57 ± 0.49 10^10/L and the IC50 (MCT1) was 0.0076 µM. The “Weight in grams (Day 0)” value ([2]; Day 0) was 22.08 grams and the “Weight in grams (Day 22)” value ([2]; Day 22) was 23.50 grams.

With `CCCCCN(CCCCC)c1ccc(/C=C(\C#N)C(=O)O)c(OC)c1` [Compound 15] the IC50 (MCT1) was 0.023 µM.

In the case of `C=CCN(CC=C)c1ccc(/C=C(\C#N)C(=O)O)c(OC)c1` [Compound 16], the IC50 (MCT1) is reported as 0.025 µM.

`C#CCN(CC#C)c1ccc(/C=C(\C#N)C(=O)O)c(OC)c1` [Compound 17] gave an IC50 (MCT1) of 0.091 µM.

`COc1cc(N(CC(C)C)CC(C)C)ccc1/C=C(\C#N)C(=O)O` [Compound 18] gave an IC50 (MCT1) of 0.015 µM.

`COc1cc(N(Cc2ccccc2)Cc2ccccc2)ccc1/C=C(\C#N)C(=O)O` [Compound 19] gave an IC50 (MCT1) of 0.019 µM.

In the case of `COc1cc(N2CCCC2)ccc1/C=C(\C#N)C(=O)O` [Compound 21], the IC50 (MCT1) is reported as 0.059 µM.

Compound `CCCN(CCC)c1ccc2cc(C(=O)O)c(=O)oc2c1` [Compound 22] has an IC50 (MCT1) of 0.299 µM.

For `C=CCN(CC=C)c1ccc2cc(C(=O)O)c(=O)oc2c1` [Compound 23], the IC50 (MCT1) was 0.25 µM.

`C#CCN(CC#C)c1ccc2cc(C(=O)O)c(=O)oc2c1` [Compound 24] gave an IC50 (MCT1) of 0.15 µM.

In the case of `O=C(O)c1cc2ccc(N(Cc3ccccc3)Cc3ccccc3)cc2oc1=O` [Compound 25], the IC50 (MCT1) is reported as 0.048 µM.

`O=C(O)c1cc2ccc(N3CCCC3)cc2oc1=O` [Compound 26] showed an IC50 (MCT1) of 0.22 µM.

Compound `O=C(O)c1cc2ccc(N(Cc3ccc(F)cc3)Cc3ccc(F)cc3)cc2oc1=O` [Compound 27] has an IC50 (MCT1) of 0.2 µM.

Compound `O=C(O)c1cc2ccc(N(Cc3ccc(Cl)cc3)Cc3ccc(Cl)cc3)cc2oc1=O` [Compound 28] has an IC50 (MCT1) of 0.92 µM.

Work on `O=C(O)c1cc2ccc(N(Cc3ccc4c(c3)OCO4)Cc3ccc4c(c3)OCO4)cc2oc1=O` [Compound 29] yielded an IC50 (MCT1) of 0.11 µM.
